Assays:
[1] = system: orthotopic 4T1-Luc tumors; assay: STL-6014 PDT and metronomic Gemzar in mice bearing 4T1-Luc tumors in the mammary pad (Scheme 1): primary tumor, survival, lung metastases, re-challenge; assay type: in vivo, Balb/c mice
Procedure: (§1) • (i) Bacteriochlorophyll Derivatives—The Bchl derivatives and RGD-conjugates thereof were provided by Steba Biotech (Rehovot, Israel). […] Concentration was verified by spectrophotometric measurement. STL-7012 was provided as dipotassium salt. Working solution was prepared by dissolving STL-7012 K^+ salt in 5% mannitol solution (1 mg/ml). […] WST11 was supplied as a powder and kept in the dark at −20° C. Stock was prepared by dissolving WST11 in DDW containing 5% glucose and 0.67% mannitol, aliquoted and lyophilized. Working solution was reconstituted with DDW and the concentration of solution was confirmed spectrophotometrically. Alternatively, Clinical WST11 (batch: P00611, and 10-130611) was supplied as lyophilized formulation. Material was dissolved in 5% dextrose, aliquoted and stored at −20° C. At the day of treatment the aliquot was thawed, filtered and the concentration of solution was confirmed spectrophotometrically. • (ii) Chemotherapeutic drugs preparation and storage—Gemcitabine (GEM, Gemzar®, Lilly) was purchased from a local pharmacy as a powder, dissolved in saline to a concentration of 38 mg/ml, aliquoted and stored at −20° C. Aliquots were thawed, diluted with saline to a desired concentration and used on the same day at a dose of 75 mg/kg. Cyclophosphamide (CTX, Endoxan®, Baxter Oncology Gmbh, Germany) was purchased from a local pharmacy. A stock solution of 20 mg/ml was prepared by dissolving in 0.9% NaCl, aliquoted and stored at −20° C. Aliquots were thawed, diluted with saline if needed to a desired concentration and used on the same day prepared at indicated doses. • (iii) Murine cell lines—Mammary luciferase (luc)-labeled 4T1 cell line (4T1-Luc) was a kind gift from Dr. Zvi Granot (Faculty of Medicine, The Hebrew University of Jerusalem, Israel); melanoma B16-F10 cell line was obtained from the American Type Culture Collection (ATCC, Manassas, Va.); bladder MB49 cell line was a kind gift from James Allison (MSKCC, New York, USA), and luc-labeled MB49-cell line was established using the murine stem cell virus (MSCV)-puromycin-luc-GFP construct (kindly provided by Dr. Emily Cheng, Human Oncology and Pathogenesis Program, MSKCC). 4T1 and MB49 cells were maintained in DMEM medium and B16-F10 cells in RPMI medium supplemented with 1 mmol/L sodium pyruvate, 10% fetal calf serum (FCS), 250 μg/ml hygromycin, 0.06 mg/ml penicillin and 0.1 mg/ml streptomycin. The cells were grown as monolayer at 37° C. in a humidified atmosphere (5% CO2, 95% air). • (iv) Murine tumor models—Female, Balb/c mice (6-8 week old) were grafted either subcutaneously (s.c.) into the right hind leg or orthotopically with 1×10^6 4T1 cells suspended in 50 or 1000 PBS. For the rechallenge study, 2×10^5 4T1 cells were orthotopically grafted. For bladder cancer model, 5×10^4 of MB49 or MB49-luciferase cell line were s.c. injected into the right flank of C57B/6 male mice (7-8 weeks old, Taconic, Hudson, N.Y.) 15 days prior to VTP treatment. For the efficacy study of VTP in immune compromised mice, the same number of MB49 cells was injected in the flank of Rag^−/− on C57B/6 background or C57B/6 male mice (7-8 week old, Jackson Laboratory, Bar Harbor, Me.). […] Whole body imaging of luciferase-transfected tumors and metastases were recorded five minutes following 75 mg Kg^−1 intraperitoneal (i.p.) injection of D-luciferin with respective filter sets. • (vi) PDT treatment protocol: 4T1-Luc cells were grafted in the mammary pad of Balb/c mice. […]

[2] = system: splenic immune cells of 4T1-bearing mice; assay: FACS profile of splenic immune cell populations in 4T1-bearing mice after STL-6014 PDT and Gemzar; assay type: in vivo
Procedure: as §1

[3] = system: CD8, Treg, Teff and TCM T cell populations; assay: Adaptive immune response (T cell populations) of mice bearing MB49 tumors; assay type: in vivo
Procedure: • (i) Bacteriochlorophyll Derivatives—The Bchl derivatives and RGD-conjugates thereof were provided by Steba Biotech (Rehovot, Israel). […] Concentration was verified by spectrophotometric measurement. STL-7012 was provided as dipotassium salt. Working solution was prepared by dissolving STL-7012 K^+ salt in 5% mannitol solution (1 mg/ml). […] WST11 was supplied as a powder and kept in the dark at −20° C. Stock was prepared by dissolving WST11 in DDW containing 5% glucose and 0.67% mannitol, aliquoted and lyophilized. Working solution was reconstituted with DDW and the concentration of solution was confirmed spectrophotometrically. Alternatively, Clinical WST11 (batch: P00611, and 10-130611) was supplied as lyophilized formulation. Material was dissolved in 5% dextrose, aliquoted and stored at −20° C. At the day of treatment the aliquot was thawed, filtered and the concentration of solution was confirmed spectrophotometrically. • (ii) Chemotherapeutic drugs preparation and storage—Gemcitabine (GEM, Gemzar®, Lilly) was purchased from a local pharmacy as a powder, dissolved in saline to a concentration of 38 mg/ml, aliquoted and stored at −20° C. Aliquots were thawed, diluted with saline to a desired concentration and used on the same day at a dose of 75 mg/kg. Cyclophosphamide (CTX, Endoxan®, Baxter Oncology Gmbh, Germany) was purchased from a local pharmacy. A stock solution of 20 mg/ml was prepared by dissolving in 0.9% NaCl, aliquoted and stored at −20° C. […] Whole body imaging of luciferase-transfected tumors and metastases were recorded five minutes following 75 mg Kg^−1 intraperitoneal (i.p.) injection of D-luciferin with respective filter sets. • (vi) PDT treatment protocol: 4T1-Luc cells were grafted in the mammary pad of Balb/c mice. […]

[4] = 120 days follow up, monotherapy

| SMILES | primary tumor cure [1, 4] | survival compared to control (Kaplan-Meier) [1, 4] | primary cure ([1]; Gemzar only, 75 mg/kg i.p. metronomic) | percentage of G-MDSC/neutrophils and M-MDSC in spleen compared to control ([2]; first week post treatment) | effect on Treg populations in spleen compared with controls ([2]; mouse, in vivo) | impact on MDSCs in spleen relative to control ([2]; second week post treatment) | CD8 cell population in the spleen, blood and draining lymph nodes ([3]; 6 days post treatment) | Treg populations (spleen, blood, lymph nodes) ([3]; 6 days post treatment) | CD8 Tcell/Treg ratio ([3]; day 6 post VTP) |
| --- | --- | --- | --- | --- | --- | --- | --- | --- | --- |
| Nc1ccn([C@@H]2O[C@H](CO)[C@@H](O)C2(F)F)c(=O)n1 [Gemzar, Gemcitabine] | no primary tumor cure | Extended mice survival | 0% | significantly reduced | Much smaller effects | diminished |  |  |  |
| CCC1c2cc3[n-]c(c(CC(=O)OC)c4nc(cc5[n-]c(cc(n2)C1C)c(C(C)=O)c5C)C(C)C4CCC(=O)[O-])c(C(=O)NCCS(=O)(=O)[O-])c3C.[K+].[K+].[Pd+2] (stereo not drawn) [WST11, Palladium 3^1-oxo-15-methoxycarbonylmethyl-rhodobacteriochlorin 13^1-(2-sulfoethyl) amide dipotassium salt] |  |  |  |  |  |  | significant elevation | no significant effect | no increase |

— US11278555B2, “Combinational therapies for treatment of cancer comprising a bacteriochlorophyll derivative” (Yeda Research and Development Co. Ltd., priority 2016, dated 2022)
